Data from ChEMBL document CHEMBL1909046, “DrugMatrix in vitro pharmacology data”.

Biological target: T1, B2 bradykinin receptor (Homo sapiens, UniProt P30411); also: in other assays of this panel Not Active means under 50% inhibition at 10 µM
T1 sequence (P30411 whole entry): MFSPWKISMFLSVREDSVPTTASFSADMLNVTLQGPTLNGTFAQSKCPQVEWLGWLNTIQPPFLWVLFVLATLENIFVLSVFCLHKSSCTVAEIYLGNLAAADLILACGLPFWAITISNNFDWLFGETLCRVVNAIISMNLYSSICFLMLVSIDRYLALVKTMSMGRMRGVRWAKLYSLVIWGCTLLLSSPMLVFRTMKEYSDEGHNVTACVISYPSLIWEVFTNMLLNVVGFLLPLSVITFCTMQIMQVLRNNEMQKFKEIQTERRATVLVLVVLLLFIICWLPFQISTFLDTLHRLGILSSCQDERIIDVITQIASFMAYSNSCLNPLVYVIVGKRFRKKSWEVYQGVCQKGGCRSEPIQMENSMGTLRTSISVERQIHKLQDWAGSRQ
Format: cell membranes, Membrane
Conditions: chem-1

Row | Compound | IC50
1 | COc1cc([C@@H]2c3cc4c(cc3[C@@H](O[C@@H]3O[C@@H]5CO[C@@H](C)O[C@H]5[C@H](O)[C@H]3O)[C@H]3COC(=O)[C@H]23)OCO4)cc(OC)c1O [ETOPOSIDE] | Not Active
2 | C=CCc1ccc(O)c(OC)c1 [EUGENOL] | Not Active
3 | CC(C(=O)O)c1cccc(Oc2ccccc2)c1 (configuration not stated) [FENOPROFEN] | Not Active
4 | CC(=O)[C@@]1(O)CC[C@H]2[C@@H]3CCC4=CC(=O)CC[C@]4(C)[C@H]3CC[C@@]21C [HYDROXYPROGESTERONE] | Not Active
5 | C#CC1(O)CC[C@H]2[C@@H]3CCC4=CC(=O)CC[C@@H]4[C@H]3CC[C@@]21CC (some centres not stated) [NORGESTREL] | Not Active
6 | C[C@]12C=CC(=O)C=C1CC[C@@H]1[C@@H]2[C@@H](O)C[C@@]2(C)[C@H]1CC[C@]2(O)C(=O)CO [PREDNISOLONE] | Not Active
7 | CC(=O)[C@H]1[C@H](C#N)C[C@H]2[C@@H]3CC=C4C[C@@H](O)CC[C@]4(C)[C@H]3CC[C@@]21C [PREGNENOLONE CARBONITRILE] | Not Active
8 | CC(C)c1cccc(C(C)C)c1O [PROPOFOL] | Not Active

System: not listed separately
Experiment: DRUGMATRIX: Calcium Channel Type L, Dihydropyridine radioligand binding (ligand: [3H] Nitrendipine)
Format: cell membranes, Rattus norvegicus, Wistar, Cerebral cortex, Membrane
Conditions: Not Active = under 50% inhibition at 10 µM

Row | Compound | IC50 | Ki
9 | COc1cc([C@@H]2c3cc4c(cc3[C@@H](O[C@@H]3O[C@@H]5CO[C@@H](C)O[C@H]5[C@H](O)[C@H]3O)[C@H]3COC(=O)[C@H]23)OCO4)cc(OC)c1O [ETOPOSIDE] | Not Active | Not Active
10 | C=CCc1ccc(O)c(OC)c1 [EUGENOL] | Not Active | Not Active
11 | CC(C(=O)O)c1cccc(Oc2ccccc2)c1 (configuration not stated) [FENOPROFEN] | Not Active | Not Active
12 | CC(=O)[C@@]1(O)CC[C@H]2[C@@H]3CCC4=CC(=O)CC[C@]4(C)[C@H]3CC[C@@]21C [HYDROXYPROGESTERONE] | Not Active | Not Active
13 | C#CC1(O)CC[C@H]2[C@@H]3CCC4=CC(=O)CC[C@@H]4[C@H]3CC[C@@]21CC (some centres not stated) [NORGESTREL] | Not Active | Not Active
14 | C[C@]12C=CC(=O)C=C1CC[C@@H]1[C@@H]2[C@@H](O)C[C@@]2(C)[C@H]1CC[C@]2(O)C(=O)CO [PREDNISOLONE] | Not Active | Not Active
15 | CC(=O)[C@H]1[C@H](C#N)C[C@H]2[C@@H]3CC=C4C[C@@H](O)CC[C@]4(C)[C@H]3CC[C@@]21C [PREGNENOLONE CARBONITRILE] | Not Active | Not Active
16 | CC(C)c1cccc(C(C)C)c1O [PROPOFOL] | Not Active | Not Active

System: not listed separately
Experiment: DRUGMATRIX: Sigma2 radioligand binding (ligand: [3H] Ifenprodil)
Format: cell membranes, Rattus norvegicus, Wistar, Brain, Membrane
Conditions: Not Active = under 50% inhibition at 10 µM

Row | Compound | IC50 | Ki
17 | COc1cc([C@@H]2c3cc4c(cc3[C@@H](O[C@@H]3O[C@@H]5CO[C@@H](C)O[C@H]5[C@H](O)[C@H]3O)[C@H]3COC(=O)[C@H]23)OCO4)cc(OC)c1O [ETOPOSIDE] | Not Active | Not Active
18 | C=CCc1ccc(O)c(OC)c1 [EUGENOL] | Not Active | Not Active
19 | CC(C(=O)O)c1cccc(Oc2ccccc2)c1 (configuration not stated) [FENOPROFEN] | Not Active | Not Active
20 | CC(=O)[C@@]1(O)CC[C@H]2[C@@H]3CCC4=CC(=O)CC[C@]4(C)[C@H]3CC[C@@]21C [HYDROXYPROGESTERONE] | Not Active | Not Active
21 | C#CC1(O)CC[C@H]2[C@@H]3CCC4=CC(=O)CC[C@@H]4[C@H]3CC[C@@]21CC (some centres not stated) [NORGESTREL] | Not Active | Not Active
22 | C[C@]12C=CC(=O)C=C1CC[C@@H]1[C@@H]2[C@@H](O)C[C@@]2(C)[C@H]1CC[C@]2(O)C(=O)CO [PREDNISOLONE] | Not Active | Not Active
23 | CC(=O)[C@H]1[C@H](C#N)C[C@H]2[C@@H]3CC=C4C[C@@H](O)CC[C@]4(C)[C@H]3CC[C@@]21C [PREGNENOLONE CARBONITRILE] | Not Active | Not Active
24 | CC(C)c1cccc(C(C)C)c1O [PROPOFOL] | Not Active | Not Active

System: not listed separately
Experiment: DRUGMATRIX: Nicotinic Acetylcholine radioligand binding (ligand: [125I] Epibatidine)
Format: cell membranes, Membrane
Conditions: imr-32; Not Active = under 50% inhibition at 10 µM

Row | Compound | IC50 | Ki
25 | COc1cc([C@@H]2c3cc4c(cc3[C@@H](O[C@@H]3O[C@@H]5CO[C@@H](C)O[C@H]5[C@H](O)[C@H]3O)[C@H]3COC(=O)[C@H]23)OCO4)cc(OC)c1O [ETOPOSIDE] | Not Active | Not Active
26 | C=CCc1ccc(O)c(OC)c1 [EUGENOL] | Not Active | Not Active
27 | CC(C(=O)O)c1cccc(Oc2ccccc2)c1 (configuration not stated) [FENOPROFEN] | Not Active | Not Active
28 | CC(=O)[C@@]1(O)CC[C@H]2[C@@H]3CCC4=CC(=O)CC[C@]4(C)[C@H]3CC[C@@]21C [HYDROXYPROGESTERONE] | Not Active | Not Active
29 | C#CC1(O)CC[C@H]2[C@@H]3CCC4=CC(=O)CC[C@@H]4[C@H]3CC[C@@]21CC (some centres not stated) [NORGESTREL] | Not Active | Not Active
30 | C[C@]12C=CC(=O)C=C1CC[C@@H]1[C@@H]2[C@@H](O)C[C@@]2(C)[C@H]1CC[C@]2(O)C(=O)CO [PREDNISOLONE] | Not Active | Not Active
31 | CC(=O)[C@H]1[C@H](C#N)C[C@H]2[C@@H]3CC=C4C[C@@H](O)CC[C@]4(C)[C@H]3CC[C@@]21C [PREGNENOLONE CARBONITRILE] | Not Active | Not Active
32 | CC(C)c1cccc(C(C)C)c1O [PROPOFOL] | Not Active | Not Active

Biological target: Protein kinase C alpha type (Homo sapiens, UniProt P17252);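 also: inhibition of PKCalpha kinase activity measured in an enzyme assay with histone as the phosphorylation substrate; in other assays of this panel Not Active means under 50% inhibition at 10 µM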
Format: cell-based
Conditions: sf9

Row | Compound | IC50
33 | COc1cc([C@@H]2c3cc4c(cc3[C@@H](O[C@@H]3O[C@@H]5CO[C@@H](C)O[C@H]5[C@H](O)[C@H]3O)[C@H]3COC(=O)[C@H]23)OCO4)cc(OC)c1O [ETOPOSIDE] | Not Active
34 | C=CCc1ccc(O)c(OC)c1 [EUGENOL] | Not Active
35 | CC(C(=O)O)c1cccc(Oc2ccccc2)c1 (configuration not stated) [FENOPROFEN] | Not Active
36 | CC(=O)[C@@]1(O)CC[C@H]2[C@@H]3CCC4=CC(=O)CC[C@]4(C)[C@H]3CC[C@@]21C [HYDROXYPROGESTERONE] | Not Active
37 | C#CC1(O)CC[C@H]2[C@@H]3CCC4=CC(=O)CC[C@@H]4[C@H]3CC[C@@]21CC (some centres not stated) [NORGESTREL] | Not Active
38 | C[C@]12C=CC(=O)C=C1CC[C@@H]1[C@@H]2[C@@H](O)C[C@@]2(C)[C@H]1CC[C@]2(O)C(=O)CO [PREDNISOLONE] | Not Active
39 | CC(=O)[C@H]1[C@H](C#N)C[C@H]2[C@@H]3CC=C4C[C@@H](O)CC[C@]4(C)[C@H]3CC[C@@]21C [PREGNENOLONE CARBONITRILE] | Not Active
40 | CC(C)c1cccc(C(C)C)c1O [PROPOFOL] | Not Active

Biological target: 5-hydroxytryptamine receptor 1B (Rattus norvegicus, UniProt P28564); also: in other assays of this panel Not Active means under 50% inhibition at 10 µM
Sequence (P28564 whole entry): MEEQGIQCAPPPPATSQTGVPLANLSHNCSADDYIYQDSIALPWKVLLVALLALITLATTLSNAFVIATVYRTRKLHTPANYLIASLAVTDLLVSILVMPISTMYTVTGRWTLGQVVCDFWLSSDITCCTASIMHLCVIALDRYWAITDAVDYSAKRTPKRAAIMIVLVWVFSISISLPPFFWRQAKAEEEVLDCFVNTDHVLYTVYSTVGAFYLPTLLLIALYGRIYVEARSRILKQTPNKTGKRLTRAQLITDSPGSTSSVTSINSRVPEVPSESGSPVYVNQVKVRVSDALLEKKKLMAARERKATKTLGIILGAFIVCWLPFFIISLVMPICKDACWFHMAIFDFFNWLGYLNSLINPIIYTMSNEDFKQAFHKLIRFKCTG
Format: cell membranes, Wistar, Cerebral cortex, Membrane
Conditions: not given

Row | Compound | IC50
41 | COc1cc([C@@H]2c3cc4c(cc3[C@@H](O[C@@H]3O[C@@H]5CO[C@@H](C)O[C@H]5[C@H](O)[C@H]3O)[C@H]3COC(=O)[C@H]23)OCO4)cc(OC)c1O [ETOPOSIDE] | Not Active
42 | C=CCc1ccc(O)c(OC)c1 [EUGENOL] | Not Active
43 | CC(C(=O)O)c1cccc(Oc2ccccc2)c1 (configuration not stated) [FENOPROFEN] | Not Active
44 | CC(=O)[C@@]1(O)CC[C@H]2[C@@H]3CCC4=CC(=O)CC[C@]4(C)[C@H]3CC[C@@]21C [HYDROXYPROGESTERONE] | Not Active
45 | C#CC1(O)CC[C@H]2[C@@H]3CCC4=CC(=O)CC[C@@H]4[C@H]3CC[C@@]21CC (some centres not stated) [NORGESTREL] | Not Active
46 | C[C@]12C=CC(=O)C=C1CC[C@@H]1[C@@H]2[C@@H](O)C[C@@]2(C)[C@H]1CC[C@]2(O)C(=O)CO [PREDNISOLONE] | Not Active
47 | CC(=O)[C@H]1[C@H](C#N)C[C@H]2[C@@H]3CC=C4C[C@@H](O)CC[C@]4(C)[C@H]3CC[C@@]21C [PREGNENOLONE CARBONITRILE] | Not Active
48 | CC(C)c1cccc(C(C)C)c1O [PROPOFOL] | Not Active

Biological target: T2, Cytochrome P450 2A6 (Homo sapiens, UniProt P11509); also: in other assays of this panel Not Active means under 50% inhibition at 10 µM
T2 sequence (P11509 whole entry): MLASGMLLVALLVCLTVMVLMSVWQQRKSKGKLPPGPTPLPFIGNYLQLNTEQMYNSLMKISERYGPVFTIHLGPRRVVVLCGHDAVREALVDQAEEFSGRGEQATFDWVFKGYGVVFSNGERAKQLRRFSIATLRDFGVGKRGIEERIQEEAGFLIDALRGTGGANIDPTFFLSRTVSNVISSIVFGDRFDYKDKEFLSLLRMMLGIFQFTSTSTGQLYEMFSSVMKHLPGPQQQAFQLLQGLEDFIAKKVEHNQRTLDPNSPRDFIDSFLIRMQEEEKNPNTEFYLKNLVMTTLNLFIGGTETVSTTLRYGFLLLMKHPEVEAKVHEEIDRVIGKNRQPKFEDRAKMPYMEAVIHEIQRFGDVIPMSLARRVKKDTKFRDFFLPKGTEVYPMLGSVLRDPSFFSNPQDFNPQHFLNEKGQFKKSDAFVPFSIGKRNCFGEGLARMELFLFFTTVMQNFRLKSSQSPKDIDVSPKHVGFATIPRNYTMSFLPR
Conditions: bti-tn-5b1-4

Row | Compound | IC50 | Ki
49 | C=CCc1ccc(O)c(OC)c1 [EUGENOL] | Not Active | Not Active
50 | CC(C(=O)O)c1cccc(Oc2ccccc2)c1 (configuration not stated) [FENOPROFEN] | Not Active | Not Active
51 | C#CC1(O)CC[C@H]2[C@@H]3CCC4=CC(=O)CC[C@@H]4[C@H]3CC[C@@]21CC (some centres not stated) [NORGESTREL] | Not Active | Not Active
52 | C[C@]12C=CC(=O)C=C1CC[C@@H]1[C@@H]2[C@@H](O)C[C@@]2(C)[C@H]1CC[C@]2(O)C(=O)CO [PREDNISOLONE] | Not Active | Not Active
53 | CC(=O)[C@H]1[C@H](C#N)C[C@H]2[C@@H]3CC=C4C[C@@H](O)CC[C@]4(C)[C@H]3CC[C@@]21C [PREGNENOLONE CARBONITRILE] | Not Active | Not Active
